Measured values as given in US20220184071A1, “GEPOTIDACIN FOR USE IN THE TREATMENT OF BACTERIAL URINARY TRACT INFECTIONS” (GlaxoSmithKline Intellectual Property Development Limited, priority 2019, published 2022).
≈ marks a conversion by molar mass, not a printed value.

Tests used:
[1] = system: K. pneumoniae; test: Phase IIa baseline uropathogen susceptibility testing (CLSI broth microdilution); type: cell-based, Klebsiella pneumoniae; settings: Klebsiella pneumoniae; Participant 7; read-out: GEP MIC
Protocol: This phase IIa single center study evaluated the safety, tolerability, pharmacokinetics, and efficacy of oral gepotidacin 1500 mg BID for 5 days in female subjects with acute cystitis. Clean catch mid-stream urine specimens were obtained for quantitative culture by standard methods. Urine samples were taken from all participants pre-treatment (baseline) and at all post-baseline visits. All urine samples were sent to a central laboratory (PPD Global Clinical Laboratories, Highland Heights, Ky., USA) for Gram stain, quantitative culture, pathogen identification and susceptibility testing. See FIG. 1 for participant disposition and study outline.
Susceptibility testing by CLSI broth microdilution and gradient diffusion (fosfomycin only) was conducted (CLSI, 2015, Methods for dilution antimicrobial susceptibility tests for bacteria that grow aerobically; approved standard-tenth edition; and CLSI, 2018. Performance Standards for Antimicrobial Susceptibility Testing; Twenty-seventh Informational Supplement M100-S28). Inclusion in the microbiological intent-to-treat population (micro-ITT), required growth of a qualifying baseline uropathogen (≥10^5 CFU/mL). See FIG. 2 for the baseline algorithm.

[2] = system: N. gonorrhoeae; test: MIC by CLSI agar dilution, Example 1 Method 2; type: cell-based, Neisseria gonorrhoeae; settings: n = 95
Protocol: (§1) Antimicrobial activity was determined in a second study by […] using the CLSI recommended procedure in serial two-fold dilutions and the minimum inhibitory concentration (MIC) was determined as the lowest concentration of the compound that inhibited visible growth.
(§2) MICs were determined according to CLSI agar dilution guidelines.

[3] = system: A. baumannii; test: MIC by CLSI agar dilution, Example 1 Method 2; type: cell-based, Acinetobacter baumannii; settings: n = 60
Protocol: as §1, §2

[4] = system: E. coli; test: Neutropenic mouse thigh infection model PK/PD; type: in vivo
Protocol: PK and PD studies using gepotidacin were conducted in murine (male CD-1 mice) thigh and kidney infections. The administered doses ranged from 1 to 200 mg/kg SC every 6 hours starting 1h post infection. Infected tissues were evaluated for bacterial burden at 24 h post infection (baseline controls at 1 h post infection).
Efficacy was determined against E. coli ALL, 997577, ATCC25922, IR5 and NCTC13441 (MICs of 1 to 4 μg/mL) in thigh-infected neutropenic (I−) mice and against E. coli ALL in kidney-infected immunocompetent (I+) and I− mice. The PopPK model was used to determine GEP exposures associated with efficacy. PK-PD analyses were conducted using Phoenix WinNonLin 6.3 (Pharsight). The change in login colony forming units (CFU) from baseline were correlated with free drug (f) AUC:MIC using an inhibitory model from the Phoenix library, and model parameter values for each isolate were used to calculate the plasma fAUC:MIC associated with stasis, 1- or 2-login reductions in CFU.
PD studies were conducted using thigh and/or kidney infection models in neutropenic or competent mice (N=5/group). Mice were infected with a bacterial suspension in log phase: 100 μL in the left thigh muscle or 50 μL in each of both kidneys (100 μl total). Final inocula across all isolates were 6.0 to 7.0 login CFU/mouse. Dose-ranging studies were conducted with 5 isolates (see Table 1). Starting 1 hr after infection, GEP was given SC (0.2 mL/mouse) at discrete doses of 1-200 mg/kg every 6 hours (q6) for a 24-hour period (4 doses in total). Mice were euthanized 24 hr after start of therapy (6 hr after the last dose), and infected thighs or kidneys were processed to determine viable bacterial counts (CFU). Baseline CFU were obtained from untreated mice at 1 hr post infection and growth control CFU from saline-treated mice at 24 hr.
NCA analyses were conducted with the simulated data.
PK-PD analysis was conducted using Phoenix WinNonLin 6.3 (Pharsight): • Log10 colony forming units (CFU) from each group were correlated with PK-PD parameters using several inhibitory models from the Phoenix library. • Model parameter values for each isolate were used to calculate the PK-PD parameter value associated with stasis, 1-log or 2-log reductions from baseline 1 h controls.

[5] = system: Bifidobacterium pseudocatenulatum; test: MIC by agar dilution, drug-resistant isolates; type: cell-based; settings: clindamycin R; 1 isolate
Protocol: (§3) Antimicrobial activity was determined by agar dilution using the Clinical and Laboratory Standards Institute (CLSI) recommended procedure.
(§4) The compounds were tested in serial two-fold dilutions and the minimum inhibitory concentration (MIC) was determined as the lowest concentration of the compound that inhibited visible growth. Gepotidacin was tested against 333 gram-negative anaerobic and 203 gram-positive anaerobic isolates collected from clinical samples in North America and Europe from 2000 to 2017; the majority collected from 2013 to 2016.
(§5) Additional analysis was performed from the results of the study described in Method 1 above, to determine the in vitro activity of gepotidacin against gram-negative and gram-positive anaerobic organisms with resistance to ceftriaxone, clindamycin, imipenem, metronidazole, moxifloxacin and piperacillin/tazobactam.

[6] = system: Eubacterium, non-speciated; test: MIC by agar dilution, drug-resistant isolates; type: cell-based; settings: 1 isolate
Protocol: as §3, §4, §5

[7] = system: Porphyromonas, non-speciated; test: MIC by agar dilution, drug-resistant isolates; type: cell-based; settings: 1 isolate
Protocol: as §3, §4, §5

[8] = system: Prevotella melaninogenica; test: MIC by agar dilution, drug-resistant isolates; type: cell-based; settings: 1 isolate
Protocol: as §3, §4, §5

[9] = system: Lactobacillus rhamnosus; test: MIC by agar dilution, drug-resistant isolates; type: cell-based; settings: imipenem R; 18 isolates
Protocol: as §3, §4, §5

[10] = system: Veillonella, non-speciated; test: MIC by agar dilution, drug-resistant isolates; type: cell-based
Protocol: as §3, §4, §5

[11] = system: Bifidobacterium longum; test: MIC by agar dilution, drug-resistant isolates; type: cell-based; settings: moxifloxacin R; 1 isolate
Protocol: as §3, §4, §5

[12] = 5 E. coli isolates, listed as Gepotidacin

For `O=c1ccc2ncc(=O)n3c2n1C[C@H]3CN1CCC(NCc2cc3c(cn2)OCCC3)CC1` [gepotidacin, (2R)-2-({4-[(3,4-dihydro-2H-pyrano[2,3-c]pyridin-6-ylmethyl)amino]-1-piperidinyl}methyl)-1,2-dihydro-3H,8H-2a,5,8a-triazaacenaphthylene-3,8-dione], the MIC [1] was 4 µg/mL (≈ 8.92 µM), the MIC50 ([2]; Neisseria gonorrhoeae) was 0.25 µg/mL (≈ 0.557 µM) and the MIC90 ([2]; Neisseria gonorrhoeae) was 1 µg/mL (≈ 2.23 µM). The “Number of Isolates at Gepotidacin MIC 0.5 mg/L” value [2] was 6, the “Number of Isolates at Gepotidacin MIC 1 mg/L” value [2] was 6 and the “Number of Isolates at Gepotidacin MIC 2 mg/L” value [2] was 4. For the same molecule, the “Number of Isolates at Gepotidacin MIC ≤0.25 mg/L” value [2] was 79, the MIC50 ([3]; Acinetobacter baumannii) was 32 µg/mL (≈ 71.3 µM) and the MIC90 ([3]; Acinetobacter baumannii) was 64 µg/mL (≈ 143 µM). For the same molecule, the “Number of Isolates at Gepotidacin MIC 8 mg/L” value [3] was 7, the “Number of Isolates at Gepotidacin MIC ≥16 mg/L” value [3] was 53 and the “Median daily plasma fAUC/MIC for 1-log Drop” value ([4]; 5 E. coli isolates) was 16. For the same molecule, the “Median daily plasma fAUC/MIC for 2-log Drop” value ([4]; 5 E. coli isolates) was 25, the “Median daily plasma fAUC/MIC for stasis” value ([4]; 5 E. coli isolates) was 11 and the “range of plasma fAUC:MIC ratios for 1-log10 reduction in CFU” value ([4]; 5 E. coli isolates) was 4-25. The “range of plasma fAUC:MIC ratios for 2-log10 reduction in CFU” value ([4]; 5 E. coli isolates) was 7-40, the “range of plasma fAUC:MIC ratios for stasis” value ([4]; 5 E. coli isolates) was 3-17 and the “Median daily plasma fAUC/MIC for 1-log Drop” value [4, 12] was 16.0. For the same molecule, the “Median daily plasma fAUC/MIC for 2-log Drop” value [4, 12] was 25.4, the “Median daily plasma fAUC/MIC for stasis” value [4, 12] was 10.6 and the “Daily fAUC/MIC for 1-log Drop, Mean ± SD” value ([4]; 5 strains) was 14.6 ± 9.0. The “Daily fAUC/MIC for 2-log Drop, Mean ± SD” value ([4]; 5 strains) was 22.9 ± 12.8, the “Daily fAUC/MIC for Stasis, Mean ± SD” value ([4]; 5 strains) was 9.9 ± 6.8 and the “Daily fAUC/MIC for 1-log Drop” value ([4]; Strain 997577) was 16.0. The “Daily fAUC/MIC for 2-log Drop” value ([4]; Strain 997577) was 25.4, the “Daily fAUC/MIC for Stasis” value ([4]; Strain 997577) was 10.6 and the “Daily fAUC/MIC for 1-log Drop” value ([4]; Strain ALL, Neutropenic Thigh) was 6.5. For the same molecule, the “Daily fAUC/MIC for 2-log Drop” value ([4]; Strain ALL, Neutropenic Thigh) was 13.8, the “Daily fAUC/MIC for Stasis” value ([4]; Strain ALL, Neutropenic Thigh) was 3.0 and the “Daily fAUC/MIC for 1-log Drop” value ([4]; Strain ATCC25922) was 21.5. The “Daily fAUC/MIC for 2-log Drop” value ([4]; Strain ATCC25922) was 27.6, the “Daily fAUC/MIC for Stasis” value ([4]; Strain ATCC25922) was 16.8 and the “Daily fAUC/MIC for 1-log Drop” value ([4]; Strain IR5) was 4.3. The “Daily fAUC/MIC for 2-log Drop” value ([4]; Strain IR5) was 7.2, the “Daily fAUC/MIC for Stasis” value ([4]; Strain IR5) was 2.8 and the “Daily fAUC/MIC for 1-log Drop” value ([4]; Strain NCTC13441) was 24.9. For the same molecule, the “Daily fAUC/MIC for 2-log Drop” value ([4]; Strain NCTC13441) was 40.3, the “Daily fAUC/MIC for Stasis” value ([4]; Strain NCTC13441) was 16.2 and the “Median plasma fAUC:MIC targets ranged” value ([4]; stasis to 2-log10 reduction) was 11 to 25. For the same molecule, the “Gepotidacin MIC range” value [5] was 4 µg/mL, the “Gepotidacin MIC range” value ([6]; ceftriaxone R) was 2 µg/mL and the “Gepotidacin MIC range” value ([6]; clindamycin R) was 2 µg/mL. The “Gepotidacin MIC range” value ([6]; moxifloxacin R) was 2 µg/mL, the “Gepotidacin MIC range” value ([7]; ceftriaxone R) was 0.125 µg/mL and the “Gepotidacin MIC range” value ([7]; clindamycin R) was 0.06 µg/mL. The “Gepotidacin MIC range” value ([7]; imipenem R) was 0.125 µg/mL, the “Gepotidacin MIC range” value ([8]; ceftriaxone R) was 0.25 µg/mL and the “Gepotidacin MIC range” value ([8]; clindamycin R) was 0.25 µg/mL. For the same molecule, the “Gepotidacin MIC range” value [9] was 0.06 to 1 µg/mL, the “Gepotidacin MIC range” value ([10]; clindamycin R, 4 isolates) was 0.125 µg/mL and the “Gepotidacin MIC range” value ([10]; moxifloxacin R, 1 isolate) was at most 0.015 µg/mL. The “Gepotidacin MIC range” value [11] was 0.12 µg/mL.
